According to patent US10239832B2, “N-(1-hydroxy-3-(pyrrolidinyl)propan-2-yl)pyrrolidine-3-carboxamide derivatives as glucosylceramide synthase inhibitors” (BIOMARIN PHARMACEUTICAL INC., priority 2013, dated 2019):

Molecular target: T1, GCS (Canis lupus familiaris, UniProt A0A8I3MXG6)
T1 construct: endogenous in cells; host or cells: MDCK (Madin-Darby canine kidney) cells, whole-cell lysate
T1 sequence (A0A8I3MXG6 1-394): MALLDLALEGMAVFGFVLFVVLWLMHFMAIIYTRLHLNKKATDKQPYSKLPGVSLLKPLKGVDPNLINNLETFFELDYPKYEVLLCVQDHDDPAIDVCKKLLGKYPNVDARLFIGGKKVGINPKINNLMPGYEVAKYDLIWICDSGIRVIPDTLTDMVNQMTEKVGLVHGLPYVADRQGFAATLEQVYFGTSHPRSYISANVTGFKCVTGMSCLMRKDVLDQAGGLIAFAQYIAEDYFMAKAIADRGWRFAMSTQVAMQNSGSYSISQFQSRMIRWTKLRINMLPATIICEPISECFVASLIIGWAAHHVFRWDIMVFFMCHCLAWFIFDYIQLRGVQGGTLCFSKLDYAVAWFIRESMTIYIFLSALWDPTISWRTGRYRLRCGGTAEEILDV
Assay: GCS enzymatic assay (MDCK cell lysate, NBD-ceramide to glucosylceramide, LC/MS)
Type: biochemical, canine
Conditions: Table 2; class symbols D, E, F, NA (not active); the table does not say which of the assays
In short: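 IC50 or percent inhibition came from LC/MS/MS (ESI+, MRM) of NBD-ceramide and glucosylceramide, with tolbutamide as internal standard. The reaction used MDCK (canine) cell lysate as the enzyme source and was ended with acetonitrile. Mock wells received 0.1% DMSO.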

| Data Range (% inhibition) | Structure (SMILES) |
| --- | --- |
| F (1-49% (or less than 50%)) | CC(C)Oc1ccc([C@@H](O)[C@@H](CN2CCCC2)NC(=O)[C@H]2CCN(c3ccc(Cl)cc3)C2)cc1Cl [Compound 23B, (S)-N-((1R,2R)-1-(3-chloro-4-isopropoxyphenyl)-1-hydroxy-3-(pyrrolidin-1-yl)propan-2-yl)-1-(4-chlorophenyl)pyrrolidine-3-carboxamide] |
| F (1-49% (or less than 50%)) | O=C(N[C@H](CN1CCCC1)[C@H](O)c1ccc(OC2CC2)nc1)[C@H]1CCN(c2ccc(Cl)cc2)C1 [Compound 13C, (S)-1-(4-chlorophenyl)-N-((1R,2R)-1-(6-cyclopropoxypyridin-3-yl)-1-hydroxy-3-(pyrrolidin-1-yl)propan-2-yl)pyrrolidine-3-carboxamide] |
